Source: US10822325B2, “Human GLUT5 specific inhibitors and methods of treatment” (UNM RAINFOREST INNOVATIONS, priority 2015, dated 2020)
“Also recorded” adds a separate entry of the source.

Target: T1, human GLUT5 (Homo sapiens, UniProt P22732)
T1 construct: Full length DNA was subcloned into pFastBac1 (Life Technologies) vector with a N-terminal hexahistidine tag; hexahistidine (N); made in house; host or cells: Sf21 insect cells (baculovirus, pFastBac1)
T1 sequence (P22732 1-501): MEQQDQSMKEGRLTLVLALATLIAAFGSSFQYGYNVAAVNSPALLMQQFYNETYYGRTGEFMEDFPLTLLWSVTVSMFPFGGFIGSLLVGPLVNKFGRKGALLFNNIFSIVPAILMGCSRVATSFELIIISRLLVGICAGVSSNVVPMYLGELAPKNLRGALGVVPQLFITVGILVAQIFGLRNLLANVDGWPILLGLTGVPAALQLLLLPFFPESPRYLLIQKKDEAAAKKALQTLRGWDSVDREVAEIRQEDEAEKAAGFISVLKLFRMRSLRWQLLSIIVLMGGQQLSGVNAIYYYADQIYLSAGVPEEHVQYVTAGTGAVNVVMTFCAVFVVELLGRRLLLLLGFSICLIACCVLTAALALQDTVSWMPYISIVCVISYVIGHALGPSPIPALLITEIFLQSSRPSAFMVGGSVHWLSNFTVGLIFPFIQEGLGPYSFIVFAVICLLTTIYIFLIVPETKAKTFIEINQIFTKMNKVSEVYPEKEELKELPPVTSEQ
Assay: Fructose entrance counter-flow transport in GLUT5 proteoliposomes
Type: biochemical
Conditions: for effect on GLUT5 fructose transport: 2 mM compound, one minute
Protocol: cDNAs of GLUT1, 3, 4 and 5 were purchased from Open Biosystems (GE Healthcare). cDNAs of GLUT2 was a gift from Prof. Graeme Bell at University of Chicago. Full length DNA was subcloned into pFastBac1 (Life Technologies) vector with a N-terminal hexahistidine tag. Bacmids were generated in DH10Bac E. coli cells (Life Technologies). Baculoviruses were produced using Cellfectin II Reagent and amplified in Sf21 insect cells (Life Technologies). Cells were maintained at 26° C., and P1 (10^6 pfu/mL) was collected from infected cells after 72 hours. SF21 cells were propagated in HyClone SFX-Insect media (GE Healthcare), supplemented with 5% fetal bovine serum (Biowest), 4.8 mM glutamine, antibiotics (100 units/mL Penicillin G and 100 μg/mL streptomycin sulfate) and amphotericin B (2.5 μg/mL). For recombinant protein expression, SF21 cells in suspension culture at 2×10^6 cells/ml were infected with P3 viral stock (10^8 pfu/mL), at an MOI of 1.0 pfu/cell. Four days after viral infection, cells from 1 L culture were collected by centrifugation at 2,000 g and 25 °C. The cell pellet was resuspended in 120 mL of 50 mM sodium phosphate (NaPi) (pH 7.5), 5% (v/v) glycerol, 200 mM sodium chloride (buffer A), with protease inhibitors (1 mM AEBSF, 10 μM E-64, 10 μM pepstatin A, 1 μM Aprotinin, 20 μM Bestatin, 20 μM Leupeptin), at 4° C., and disrupted by sonication (Branson Ultrasonic). n-Dodecyl-β-D-maltopyranoside (DDM, EMD chemicals) was added to a final concentration of 1% (w/v) in the broken cell solution, and the mixture was incubated at 4° C. with stirring, for 4 hours. The solubilized protein solution was clarified by ultracentrifugation at 200,000 g and 4° C. for 1 hour, and the supernatant was loaded onto the Ni-NTA resin (Novagen) and washed with buffer containing 50 mM NaPi (pH 7.5), 500 mM NaCl, 5-20 mM imidazole, 5% (v/v) glycerol and 0.05% (w/v) DDM. GLUT1 (or GLUT2-5, wild-type or mutants) was eluted with buffer A, containing 300 mM imidazole and 0.05% DDM (w/v). To generate DNA for mutant proteins, site-directed mutagenesis was performed on the pFastBac1 plasmid constructs of wild-type proteins and verified by DNA sequencing^37. Mutant proteins were expressed and purified in the same manner as wild-type proteins with no modifications.
Proteoliposomes were generated according to the protocol of^16,38 with minor modifications. Liposomes were made from a 95%/5% mix of soy phosphatidylcholine and cholesterol (Avanti Polar Lipids). Prepared liposomes were destabilized with 4 mM Triton X-100 and mixed with purified protein in a 100:1 (w/w) ratio in 100 mM KPi (pH 7.5), 20% (v/v) glycerol, 200 mM glucose for GLUT1-4 and GLUT1F379H or fructose for GLUT5 (wild-type and H387F mutant) and GLUT2. Detergent was removed by several additions of SM2 BioBeads (BioRad) and incubated overnight at 4° C. […]
For the entrance counterflow transport in proteoliposomes, the assay was started by the addition of 5 μL proteoliposomes solution (OD600 nm ˜30) to 200 μL, assay solution, containing 10 μM ^14C-radiolabeled glucose (for GLUT1 wild-type or F379H mutant and GLUT2-4) or fructose (for GLUT5 wild-type or H387F mutant and GLUT2) (Moravek Biochemicals) in 100 mM KPi buffer at pH 7.5. After one minute (or different specified time points when the time-dependent counter-flow transport activity was measured), the transport was stopped with ice-chilled quench buffer [0.1 M KPi (pH 5.5) and 0.1 M lithium chloride]. […]

| Structure (SMILES) | inhibitory activity against GLUT5 in screen of 175 purchased compounds (1 mM compound, fructose transport in proteoliposomes) | effect on GLUT5 fructose transport (proteoliposomes) | IC50 (proteoliposomes, 10 μM C14-fructose, measured one minute after transport initiation, read-out: IC50 of inhibition of GLUT5 fructose transport) [µM] |
| --- | --- | --- | --- |
| CS(=O)(=O)c1ccc(Nc2ccc3c(c2)OCO3)c([N+](=O)[O-])c1 [MSNBA, N-[4-(methylsulfonyl)-2-nitrophenyl]-1,3-benzodioxol-5-amine] | inhibitor of GLUT5; also recorded: inhibitory activity | completely abolished | 100 ± 30 |
| O=C(CCc1ccc(O)cc1)c1c(O)cc(O)cc1O [phloretin, reference compound] | – | did not alter | – |
| C=C1[C@@H](C)[C@H]2[C@H](Cc3ccccc3)NC(=O)[C@]23OC(=O)/C=C/[C@H](O)CCC[C@@H](C)C/C=C/[C@H]3[C@@H]1O [cytochalasin B, reference compound] | – | did not alter | – |
